Patent US8937068B2, “Pyridopyrazine derivatives and their use” (Zentaris GmbH, priority 2005, dated 2015)

Key:
Erk → pRsk = test: Cellular substrate phosphorylation (Western Blotting), Erk substrate pRsk; assay type: cell-based; conditions: 50 μM, 5 h
Method: (§1) This method can be used to predict whether the kinase modulator under study also achieves the desired effect in a cellular context, i.e. in this case, a substrate protein downstream of the target kinase is investigated for its phosphorylation status. For this purpose, the cells incubated with substance are lysed and the total protein separated on a reducing polyacrylamide gel. The proteins are then transferred to a PVDF membrane by means of Western Blotting and the substrate bands sought are made visible with specific antibodies and a suitable detection method. The substrate proteins downstream of the target kinases are detected simultaneously with a respectively special anti-phospho-antibody and at the same time a total antibody which recognizes the substrate total protein. This simultaneous measurement can be made using the duplex technology of the ODYSSEY imagers (LiCOR). The intensity of the total substrate bands is used for normalising or quantifying the phosphorylation inhibition or activation.
(§2) Suitable tumour cell lines (e.g. BxPC3, Hct116 or MDA MB468) were injected into six-well microtitre plates in a defined cell number (e.g. 350 000 cells/well for BxPC3 and Hct116) in the respective standard complete medium and then incubated overnight at 37° C., 5% CO2 and 95% air humidity. The cells were then incubated for a further 24 h under serum-reduced conditions i.e. in the respective medium but with only 0.25% serum. The test substances were prepared as stock solutions (10 mM) in DMSO and incubated with the cells in final concentrations of 5, 15.8 and 50 μM for 5 h. This was followed by cell lysis in 25 mM Tris, 150 mM NaCl, 10 mM Na-pyrophosphate, 2 mM EGTA, 25 mM β-glycerophosphate, 25 mM NaF, 10% glycerine, 0.75% NP-40, 100 μM NaVO4 buffer. Following protein quantification by means of BCA (bicinchonic acid protein assay kit, Sigma) Assay, protein quantities of about 20 μg per track were separated on a Lämmli polyacrylamide gel and then transferred to a PVDF membrane (Millipore) by means of Semi-Dry Western-Blotting at 0.8 mA/cm^2 for 1 h. This was followed by pre-hybridisation of the membrane for 1 hour in I-block reagent (Applied Biosystems) and incubation overnight with the specific antibodies. To determine the Erk and PI3K inhibition, the respectively downstream substrates Rsk1 were detected with the total antibody (Rsk #sc-231g C-21, Santa Cruz) and the phospho-antibody (Phospho-p90RSK (S380) #9341, NEB Cell Signalling) and Akt was detected with the total antibody (Akt1 #sc-1618 C-20, Santa Cruz) and the phospho-antibody (Phospho-Akt (Ser 473) #9271, NEB Cell Signaling). After washing the membrane, secondary antibody incubation was carried out with anti-rabbit IR Dye 800 (#611-732-127, Rockland) for the phospho-antibody and anti-goat Alexa Fluor 680 (#A-21081, Molecular Probes) for the total protein-antibody. After incubating for 30 min at room temperature in the dark, the hybridisation of the detection antibody on the membrane was detected by scanning in the ODYSSEY imager (LiCOR).
(§3) The reduction of the fluorescence intensity of the phospho-substrate bands (pRsk and pAkt) is given in the table below as % inhibition and relates to the following formula:
(§4) The band intensity (fluorescence intensity) of the respective non-inhibited (without substance) phospho-substrates was used as 100% control.

PI3K → pAkt = test: Cellular substrate phosphorylation (Western Blotting), PI3K substrate pAkt; assay type: cell-based; conditions: 50 μM, 5 h
Method: as §1, §2, §3, §4

Erk2 = Erk2 (Homo sapiens, UniProt P28482); test: Cell-free kinase assay (ALPHA technology), Erk2; assay type: biochemical; conditions: 10 μM ATP
Sequence of Erk2 (P28482 2-360 limits assumed): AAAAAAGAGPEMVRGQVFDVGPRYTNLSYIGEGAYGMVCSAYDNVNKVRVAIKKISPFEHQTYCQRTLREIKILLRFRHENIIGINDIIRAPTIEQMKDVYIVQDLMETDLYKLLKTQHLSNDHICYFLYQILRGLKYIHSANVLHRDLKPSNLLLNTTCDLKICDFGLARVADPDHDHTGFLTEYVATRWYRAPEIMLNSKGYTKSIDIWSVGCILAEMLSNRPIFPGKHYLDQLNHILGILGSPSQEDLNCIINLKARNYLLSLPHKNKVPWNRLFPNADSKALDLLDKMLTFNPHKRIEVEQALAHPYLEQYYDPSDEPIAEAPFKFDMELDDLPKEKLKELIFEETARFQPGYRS
Outline: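 Recombinant tagged Erk2 kinase reactions were stopped with ALPHA bead mix […]. The signal was read after standing overnight. Controls were run in eight replicates and compounds in duplicate, and IC50 was fitted.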

| SMILES | IC50 (Erk2) [nM] | inhibition at 50 µM (Erk → pRsk) [%] | inhibition at 50 µM (PI3K → pAkt) [%] | Inhibition of cellular substrate phosphorylation Erk → pRsk (Erk → pRsk) [%] | Inhibition of cellular substrate phosphorylation PI3K → pAkt (PI3K → pAkt) [%] |
| --- | --- | --- | --- | --- | --- |
| C=CCNC(=S)Nc1ccc2ncc(-c3ccc(O)cc3)nc2n1 [Compound 30, 1-allyl-3-[3-(4-hydroxy-phenyl)-pyrido[2,3-b]pyrazin-6-yl]-thiourea] | 392 | 90 | 100 |  |  |
| CCNC(=O)Nc1ccc2ncc(-c3ccc(O)c(OC)c3)nc2n1 [Compound 124, 1-Ethyl-3-[3-(4-hydroxy-3-methoxy-phenyl)-pyrido[2,3-b]pyrazin-6-yl]-urea] | 62 | 90 | 90 |  |  |
| O=C(NCCCCO)Nc1ccc2ncc(-c3ccccc3)nc2n1 [Compound 146, 1-(4-Hydroxy-butyl)-3-(3-phenyl-pyrido[2,3-b]pyrazin-6-yl)-urea] | 155 | 100 | 10 |  |  |
| CCNC(=O)Nc1ccc2ncc(Nc3ccc(C)cc3)nc2n1 [Compound 150, 1-Ethyl-3-(3-p-tolylamino-pyrido[2,3-b]pyrazin-6-yl)-urea] | 18700 | 0 | 90 |  |  |

The next lines start with results.

| IC50 (Erk2) [nM] | SMILES | inhibition at 50 µM (Erk → pRsk) [%] | inhibition at 50 µM (PI3K → pAkt) [%] | Inhibition of cellular substrate phosphorylation Erk → pRsk (Erk → pRsk) [%] | Inhibition of cellular substrate phosphorylation PI3K → pAkt (PI3K → pAkt) [%] |
| --- | --- | --- | --- | --- | --- |
| 107 | CCNC(=O)Nc1ccc2ncc(-c3cnn(C)c3)nc2n1 [Compound 173, 1-Ethyl-3-[3-(1-methyl-1H-pyrazol-4-yl)-pyrido[2,3-b]pyrazin-6-yl]-urea] | 90 | 50 |  |  |
| 203 | CCNC(=O)Nc1ccc2ncc(-c3ccc(O)c(OC)c3)nc2n1.Cc1ccc(S(=O)(=O)O)cc1 [Compound 183, 1-Ethyl-3-[3-(4-hydroxy-3-methoxy-phenyl)-pyrido[2,3-b]pyrazin-6-yl]-urea p-Toluolsulfonate] |  |  | 80 | 80 |
